# Data reported in ChEMBL document CHEMBL1201862, “PubChem BioAssay data set” (2004).
# Calls of active or inactive are those of the source.
# Key:
# [1] = target: T1, Tyrosine-protein phosphatase non-receptor type 7 (Homo sapiens, UniProt P35236); assay: inhibitors of human HePTP phosphatase, […], biochemical, absorbance, leukemia target (AID 521); type: functional
# T1 sequence (P35236 whole entry): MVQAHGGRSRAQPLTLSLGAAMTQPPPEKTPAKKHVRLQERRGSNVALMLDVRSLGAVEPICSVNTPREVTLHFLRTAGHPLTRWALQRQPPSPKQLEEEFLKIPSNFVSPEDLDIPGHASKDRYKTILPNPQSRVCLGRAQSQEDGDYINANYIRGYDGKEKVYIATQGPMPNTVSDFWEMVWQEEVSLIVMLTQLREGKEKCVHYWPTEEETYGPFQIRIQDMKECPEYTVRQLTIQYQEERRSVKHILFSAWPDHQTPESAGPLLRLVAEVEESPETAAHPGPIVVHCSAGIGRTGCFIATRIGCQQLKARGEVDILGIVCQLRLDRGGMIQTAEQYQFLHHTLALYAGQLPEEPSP
# [2] = target: Sphingosine 1-phosphate receptor 2 (Homo sapiens, UniProt O95136); assay: Dose Response Cell Based Assay for Agonists of the S1P2 Receptor. [Related pubchem assays: 729, 736, 843 ]; type: functional
# [3] = HEp-2 cell cytotoxicity, dose response, cytotoxicity control for RSV inhibitor project, HTS (AID 2410); type: functional; details: human respiratory syncytial virus
# Vero = assay: West Nile virus antiviral activity, cell-based, CPE readout (AID 1621); type: functional; details: Chlorocebus sabaeus
# [4] = cytotoxicity in HEK-293T cells, dose response, cytotoxicity control for TCR NF-kB inhibitor project, luminescence, T-cell screen hits (AID 489026); type: functional, cell-based;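 note: cells exposed to compound about 14 hours before the viability readout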
# cells [5] = assay: cells
# Large T antigen = Large T antigen (Simian virus 40, UniProt P03070); type: functional, Betapolyomavirus macacae;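 note: Confirmatory-stage PubChem screen for compounds that inhibit SV40 T antigen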
# [6] = target: Bifunctional protein GlmU (Mycobacterium tuberculosis, UniProt P9WMN3); assay: Inhibitors of Mycobacterial Glucosamine-1-phosphate acetyl transferase (GlmU). Secondary screen.; parameters: species or system Mycobacterium tuberculosis H37Rv
# [7] = target: E3 ubiquitin-protein ligase Mdm2 (Homo sapiens, UniProt Q00987); assay: enhancers of MDM2-luciferase reporter signal, concentration-effect titration, project on inhibitors of MDM2 ubiquitin ligase, cellular assay, luminescent readout, 384-well plate format (AID 1394); type: functional;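 note: MDM2 E3 inhibitors raise luminescence so EC50 is for signal enhancement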
# [8] = system: Streptococcus sp. 'group A'; assay: growth inhibition of control SK(-) GAS strain, dose response, counter-screen for streptokinase expression inhibitor project, luminescence, kanamycin, BacTiterGlo, confirmation (AID 1900); type: functional, organism-based
# Streptokinase A = target: T2, Streptokinase A (Streptococcus pyogenes serotype M1, UniProt P10520); assay: S. pyogenes streptokinase expression inhibitors, potency, dose response, plasminogen activation absorbance, OD405 (AID 1914); type: functional, Streptococcus pyogenes M1 GAS;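 note: secreted streptokinase activity via plasminogen activation per viability signal from cell pellet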
# T2 sequence (P10520 whole entry): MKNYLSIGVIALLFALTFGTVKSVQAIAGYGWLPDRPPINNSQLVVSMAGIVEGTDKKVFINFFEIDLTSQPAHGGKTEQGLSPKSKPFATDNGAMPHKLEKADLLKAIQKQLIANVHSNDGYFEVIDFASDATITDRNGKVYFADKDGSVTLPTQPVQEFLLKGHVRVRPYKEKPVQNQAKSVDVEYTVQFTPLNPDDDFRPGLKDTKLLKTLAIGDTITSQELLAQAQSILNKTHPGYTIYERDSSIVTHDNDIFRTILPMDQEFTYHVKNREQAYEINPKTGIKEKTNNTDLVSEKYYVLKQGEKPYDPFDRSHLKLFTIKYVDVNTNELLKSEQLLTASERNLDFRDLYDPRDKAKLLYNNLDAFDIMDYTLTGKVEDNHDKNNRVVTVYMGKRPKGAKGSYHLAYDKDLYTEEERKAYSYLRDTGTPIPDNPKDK
# Streptococcus = assay: Group A Streptococcus viability loss, dose response, counter-screen for streptokinase expression inhibitor project, luminescence, BacTiterGlo (AID 1915); type: functional, organism-based;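 note: potency for reduction of bacterial viability or growth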
# H9c2 = assay: cells; type: functional, cell-based; details: Rattus norvegicus, H9c2, Myocardium;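 note: confirmatory concentration-response retest of ultra-high-throughput screening hits for modulation of myocardial damage; cell death induced by hydrogen peroxide oxidative stress; compound pretreatment for 60 min then peroxide exposure for 2 h; potency is for protecting the cells against peroxide damage rather than for killing them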
# Transthyretin = Transthyretin (Homo sapiens, UniProt P02766); assay: Luminescence-based cell-based high throughput dose response assay to identify activators of Transthyretin (TTR) transcription.; type: functional
# Danio rerio = assay: In Vivo Angiogenesis Dose-Response Confirmation. [Related pubchem assays: 732 (Assay preceding this confirmatory assay.)]; type: functional, organism-based
# [9] = target: Ubiquitin carboxyl-terminal hydrolase BAP1 (Homo sapiens, UniProt Q92560); assay: BAP1 deubiquitinase inhibitors, dose response, biochemical (AID 714); type: functional
# [10] = target: T3, Heat shock factor protein 1 (Mus musculus, UniProt P38532); assay: HSF1 potentiators in luciferase reporter cells, confirmation, cell-based, NIH3T3, luminescence, dose retest (AID 435004); type: functional;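 note: stress induced by proteasome inhibitor MG132 added 30 min after compound; luciferase reporter driven by HSF1 response element in NIH3T3 cells; actives raise luminescence as potentiators of the MG132 stress response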
# T3 sequence (P38532 whole entry): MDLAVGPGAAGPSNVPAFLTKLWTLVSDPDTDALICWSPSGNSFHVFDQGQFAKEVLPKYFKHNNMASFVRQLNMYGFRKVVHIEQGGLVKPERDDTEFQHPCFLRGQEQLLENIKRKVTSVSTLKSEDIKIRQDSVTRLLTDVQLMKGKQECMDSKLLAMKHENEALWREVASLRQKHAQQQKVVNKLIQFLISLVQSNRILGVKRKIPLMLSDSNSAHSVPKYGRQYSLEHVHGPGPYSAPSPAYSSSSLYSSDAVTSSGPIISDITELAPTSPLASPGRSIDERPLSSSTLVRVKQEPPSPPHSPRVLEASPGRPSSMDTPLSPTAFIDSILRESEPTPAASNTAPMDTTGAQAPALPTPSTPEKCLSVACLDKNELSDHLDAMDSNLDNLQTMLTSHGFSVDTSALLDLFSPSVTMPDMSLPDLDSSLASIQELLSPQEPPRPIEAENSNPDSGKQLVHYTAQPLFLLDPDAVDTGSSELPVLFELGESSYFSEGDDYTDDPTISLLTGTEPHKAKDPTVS
# NADPH oxidase 1 = target: T4, NADPH oxidase 1 (Homo sapiens, UniProt Q9Y5S8); assay: Late-stage luminescence-based cell-based dose response assay to identify inhibitors of NADPH oxidase 1 (NOX1): Purchased analogs 2.; type: functional
# T4 sequence (Q9Y5S8 whole entry): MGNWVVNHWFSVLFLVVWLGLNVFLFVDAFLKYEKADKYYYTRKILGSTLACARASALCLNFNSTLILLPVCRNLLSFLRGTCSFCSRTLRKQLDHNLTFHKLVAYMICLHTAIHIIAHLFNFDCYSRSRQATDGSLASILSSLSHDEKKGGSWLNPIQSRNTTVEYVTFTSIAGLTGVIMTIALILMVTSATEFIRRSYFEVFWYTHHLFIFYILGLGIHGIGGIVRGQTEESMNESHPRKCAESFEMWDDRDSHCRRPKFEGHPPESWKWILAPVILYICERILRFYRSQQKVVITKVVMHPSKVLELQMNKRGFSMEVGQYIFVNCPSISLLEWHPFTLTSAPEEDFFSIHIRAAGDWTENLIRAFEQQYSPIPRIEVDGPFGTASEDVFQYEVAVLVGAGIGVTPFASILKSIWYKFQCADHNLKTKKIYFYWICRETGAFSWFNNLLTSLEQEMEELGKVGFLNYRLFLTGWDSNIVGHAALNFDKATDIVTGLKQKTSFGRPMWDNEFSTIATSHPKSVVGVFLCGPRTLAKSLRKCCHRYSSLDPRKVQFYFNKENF
# Ephrin type-A receptor 4 = Ephrin type-A receptor 4 (Mus musculus, UniProt Q03137); assay: inhibitors of EphA4 binding to KYL peptide, primary screen, biochemical, colorimetric, mouse EphA4 (AID 689); type: functional
# [11] = Luminescent dose response cell-based high throughput screening assay for inhibitors of the Janus kinase 2 mutant JAK2V617F. [Related pubchem assays: 1446 (Primary screen.), 1521 (Confirmation assay.), 1486 (Counter screen.)]; type: functional
# BJ [12] = assay: cytotoxicity toward BJ-TERT fibroblasts, dose response, cell-based, RAS-independent, luminescence (AID 1933); type: functional; details: Homo sapiens
# BJ [13] = assay: cells; type: functional, cell-based; details: Homo sapiens
# BJ [14] = assay: cytotoxicity toward BJ-TERT-LT-ST fibroblasts, dose response, cell-based, RAS-independent, luminescence (AID 1935); type: functional; details: Homo sapiens;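 note: BJ fibroblasts immortalized with TERT plus LT and ST oncogenes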
# [15] = cytotoxicity toward DRD oncogenic fibroblasts, dose response, cell-based, non-viral oncogenic, luminescence (AID 1934); type: functional; details: Homo sapiens
# Jurkat = assay: antigen receptor-induced NF-kB inhibitors, dose response, Jurkat, luciferase reporter, luminescence, B- and T-cell (AID 489004); type: functional, cell-based; details: Homo sapiens;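 note: NF-kB luciferase reporter Jurkat cells stimulated with PMA plus ionomycin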
# [16] = cytotoxicity in HEK-293T NF-kB-Luc cells, dose response, cytotoxicity control for B/T-cell NF-kB inhibitor project, cell-based, uHTS hits (AID 489019); type: functional;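 note: IC50 reflects cytotoxicity as loss of cell viability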
# BJ [17] = assay: cytotoxicity toward Ras-transformed BJeLR fibroblasts, dose response, cell-based, alamar blue fluorescence, cherrypicked samples (AID 2631); type: functional; details: Homo sapiens;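 note: confirmatory dose-response assay in RAS-dependent BJ fibroblasts engineered with TERT, LT and ST, with cytotoxicity read by fluorescence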
# Paired box protein Pax-8 = Paired box protein Pax-8 (Homo sapiens, UniProt Q06710); assay: inhibitors of PAX8-driven TPO luciferase reporter, dose response, RMG-I cells, cherry-pick (AID 687027); type: functional, cell-based;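 note: luciferase reporter driven by Pax8 target thyroperoxidase promoter measured by SteadyGlo luminescence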
# [18] = non-specific cell cytotoxicity, dose response, cytotoxicity control for PAX8 inhibitor project, plate reader, dry powder samples (AID 743021); type: functional, cell-based
# [19] = M. tuberculosis growth inhibition, HTS (AID 449762); type: functional
# [20] = microbe, parasite or virus in culture; type: functional; details: Mycobacterium tuberculosis
# [21] = Dose-response inhibition of insulin secretion in a rat insulinoma line at 5 mM glucose (AID 1117331); type: functional, cell-based; details: INS-1E
# cells [22] = type: functional, cell-based; details: INS-1E
# Bcl-2-related protein A1 [23] = target: T5, Bcl-2-related protein A1 (Mus musculus, UniProt Q07440); assay: Bfl-1 inhibitors, primary screen, biochemical, fluorescence polarization, FITC-Bid, mouse (AID 432)
# T5 sequence (Q07440 whole entry): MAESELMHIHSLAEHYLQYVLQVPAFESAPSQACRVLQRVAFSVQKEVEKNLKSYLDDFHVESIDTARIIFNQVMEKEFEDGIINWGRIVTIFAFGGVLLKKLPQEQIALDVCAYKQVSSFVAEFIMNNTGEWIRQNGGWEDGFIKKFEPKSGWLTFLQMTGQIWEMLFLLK
# Bcl-2-related protein A1 [24] = target: T5, Bcl-2-related protein A1; assay: Bfl-1 inhibitors blocking BH3 peptide binding, confirmation, biochemical, TR-FRET, mouse Bfl-1 (AID 621);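 note: TR-FRET binding of GST-Bfl-1 to FITC-labelled Bid peptide via terbium antibody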
# [25] = target: T6, Polyadenylate-binding protein 1 (Homo sapiens, UniProt P11940); assay: PABP1 MLLE–PAM2 interaction inhibitors, dose response, miRNA deadenylation inhibitor project, biochemical, fluorescence polarization, Cy5-PAM2 peptide, secondary (AID 602260); type: functional; details: read-out: IC50_Mean
# [26] = target: T6, Polyadenylate-binding protein 1; assay: PABP1 MLLE–PAM2 binding inhibitor potency, dose response, biochemical, fluorescence polarization, FITC-PAM2 peptide (AID 602259); type: functional; details: read-out: IC50_Mean
# T6 sequence (P11940 whole entry): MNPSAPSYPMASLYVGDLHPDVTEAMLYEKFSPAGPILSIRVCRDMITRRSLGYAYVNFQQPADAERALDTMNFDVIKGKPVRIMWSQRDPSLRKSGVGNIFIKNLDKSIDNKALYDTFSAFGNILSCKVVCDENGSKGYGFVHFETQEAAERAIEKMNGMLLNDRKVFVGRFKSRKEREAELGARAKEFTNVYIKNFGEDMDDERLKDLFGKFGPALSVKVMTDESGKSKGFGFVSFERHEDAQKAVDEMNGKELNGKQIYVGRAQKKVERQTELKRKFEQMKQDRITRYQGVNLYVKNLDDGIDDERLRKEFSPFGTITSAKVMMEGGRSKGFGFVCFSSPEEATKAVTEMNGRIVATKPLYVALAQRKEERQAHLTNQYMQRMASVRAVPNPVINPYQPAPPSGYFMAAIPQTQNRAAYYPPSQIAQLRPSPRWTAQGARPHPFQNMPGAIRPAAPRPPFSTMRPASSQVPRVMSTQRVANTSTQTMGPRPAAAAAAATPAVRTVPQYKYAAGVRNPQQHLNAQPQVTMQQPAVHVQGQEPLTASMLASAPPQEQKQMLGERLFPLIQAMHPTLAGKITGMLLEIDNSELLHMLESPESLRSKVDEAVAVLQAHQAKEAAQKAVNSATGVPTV
# Large T antigen, sequence (P03070 whole entry): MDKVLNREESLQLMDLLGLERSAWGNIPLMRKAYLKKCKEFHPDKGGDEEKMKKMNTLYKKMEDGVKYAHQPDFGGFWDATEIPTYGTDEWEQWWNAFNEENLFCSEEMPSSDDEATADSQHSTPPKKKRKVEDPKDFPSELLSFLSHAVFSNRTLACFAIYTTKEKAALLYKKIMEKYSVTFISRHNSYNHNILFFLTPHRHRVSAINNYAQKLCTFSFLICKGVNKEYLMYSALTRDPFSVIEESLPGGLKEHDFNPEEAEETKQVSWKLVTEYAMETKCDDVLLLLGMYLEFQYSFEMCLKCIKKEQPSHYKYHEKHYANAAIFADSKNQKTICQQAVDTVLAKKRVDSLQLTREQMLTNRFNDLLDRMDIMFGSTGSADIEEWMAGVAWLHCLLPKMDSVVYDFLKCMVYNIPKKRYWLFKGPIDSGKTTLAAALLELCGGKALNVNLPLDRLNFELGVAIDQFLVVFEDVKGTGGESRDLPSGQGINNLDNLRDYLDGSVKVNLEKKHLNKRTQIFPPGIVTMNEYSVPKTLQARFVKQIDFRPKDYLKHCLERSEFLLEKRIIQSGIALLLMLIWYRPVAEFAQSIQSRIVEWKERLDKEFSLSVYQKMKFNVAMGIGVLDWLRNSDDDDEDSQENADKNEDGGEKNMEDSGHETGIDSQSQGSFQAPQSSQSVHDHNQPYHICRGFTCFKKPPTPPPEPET
# Ubiquitin carboxyl-terminal hydrolase BAP1, sequence (Q92560 whole entry): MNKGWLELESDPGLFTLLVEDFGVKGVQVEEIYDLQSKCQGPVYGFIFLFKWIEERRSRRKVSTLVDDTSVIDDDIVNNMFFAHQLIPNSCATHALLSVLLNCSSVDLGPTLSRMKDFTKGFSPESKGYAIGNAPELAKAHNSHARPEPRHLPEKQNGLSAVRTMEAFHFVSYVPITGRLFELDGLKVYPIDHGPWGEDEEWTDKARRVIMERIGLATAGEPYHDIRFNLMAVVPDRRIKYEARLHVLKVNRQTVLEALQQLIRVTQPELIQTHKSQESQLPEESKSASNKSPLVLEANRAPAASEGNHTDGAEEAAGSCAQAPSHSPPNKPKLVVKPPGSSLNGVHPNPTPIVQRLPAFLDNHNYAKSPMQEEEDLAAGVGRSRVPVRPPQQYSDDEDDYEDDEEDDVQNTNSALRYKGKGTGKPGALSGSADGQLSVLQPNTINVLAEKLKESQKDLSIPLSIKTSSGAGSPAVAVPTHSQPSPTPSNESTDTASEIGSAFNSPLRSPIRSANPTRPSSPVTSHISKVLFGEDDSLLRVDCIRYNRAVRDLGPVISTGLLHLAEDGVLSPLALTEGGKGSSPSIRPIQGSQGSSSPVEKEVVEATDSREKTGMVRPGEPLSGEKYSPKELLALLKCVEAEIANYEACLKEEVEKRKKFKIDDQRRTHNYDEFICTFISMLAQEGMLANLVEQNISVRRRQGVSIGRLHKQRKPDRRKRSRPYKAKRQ
# Bifunctional protein GlmU, sequence (P9WMN3 whole entry): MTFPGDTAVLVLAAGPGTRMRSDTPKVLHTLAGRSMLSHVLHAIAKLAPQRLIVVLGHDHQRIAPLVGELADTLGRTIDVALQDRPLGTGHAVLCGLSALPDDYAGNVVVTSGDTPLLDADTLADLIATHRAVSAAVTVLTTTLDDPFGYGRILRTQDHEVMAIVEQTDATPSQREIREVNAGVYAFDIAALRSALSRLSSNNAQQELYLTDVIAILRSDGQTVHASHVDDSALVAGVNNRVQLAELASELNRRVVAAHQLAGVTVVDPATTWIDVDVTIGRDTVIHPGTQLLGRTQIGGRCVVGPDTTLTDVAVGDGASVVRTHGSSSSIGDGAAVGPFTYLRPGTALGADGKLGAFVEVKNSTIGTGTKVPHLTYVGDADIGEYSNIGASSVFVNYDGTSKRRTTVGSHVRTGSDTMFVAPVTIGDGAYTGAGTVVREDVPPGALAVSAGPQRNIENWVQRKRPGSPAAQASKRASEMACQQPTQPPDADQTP
# E3 ubiquitin-protein ligase Mdm2, sequence (Q00987 whole entry): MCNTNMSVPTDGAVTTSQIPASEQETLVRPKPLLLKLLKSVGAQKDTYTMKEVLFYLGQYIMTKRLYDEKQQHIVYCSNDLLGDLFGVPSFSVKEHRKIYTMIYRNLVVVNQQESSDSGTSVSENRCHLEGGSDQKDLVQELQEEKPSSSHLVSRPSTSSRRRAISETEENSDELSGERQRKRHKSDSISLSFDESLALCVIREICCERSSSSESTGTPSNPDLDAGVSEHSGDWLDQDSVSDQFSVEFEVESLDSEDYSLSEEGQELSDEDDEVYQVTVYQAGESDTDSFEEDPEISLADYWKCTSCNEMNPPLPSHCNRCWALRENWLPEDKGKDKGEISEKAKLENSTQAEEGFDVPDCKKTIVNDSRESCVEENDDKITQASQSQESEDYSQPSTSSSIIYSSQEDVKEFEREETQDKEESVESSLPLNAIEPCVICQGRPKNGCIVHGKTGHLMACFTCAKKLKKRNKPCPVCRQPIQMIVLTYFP
# Sphingosine 1-phosphate receptor 2, sequence (O95136 whole entry): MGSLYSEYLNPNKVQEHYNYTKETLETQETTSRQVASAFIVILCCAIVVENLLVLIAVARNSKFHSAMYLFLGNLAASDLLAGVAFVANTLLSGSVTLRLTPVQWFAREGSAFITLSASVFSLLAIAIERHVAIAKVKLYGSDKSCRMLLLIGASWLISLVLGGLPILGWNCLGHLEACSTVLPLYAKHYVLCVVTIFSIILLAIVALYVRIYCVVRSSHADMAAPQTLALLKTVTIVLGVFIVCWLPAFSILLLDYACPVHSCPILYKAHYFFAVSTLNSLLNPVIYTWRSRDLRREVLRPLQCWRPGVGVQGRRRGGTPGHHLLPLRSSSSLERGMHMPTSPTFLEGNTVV
# Paired box protein Pax-8, sequence (Q06710 whole entry): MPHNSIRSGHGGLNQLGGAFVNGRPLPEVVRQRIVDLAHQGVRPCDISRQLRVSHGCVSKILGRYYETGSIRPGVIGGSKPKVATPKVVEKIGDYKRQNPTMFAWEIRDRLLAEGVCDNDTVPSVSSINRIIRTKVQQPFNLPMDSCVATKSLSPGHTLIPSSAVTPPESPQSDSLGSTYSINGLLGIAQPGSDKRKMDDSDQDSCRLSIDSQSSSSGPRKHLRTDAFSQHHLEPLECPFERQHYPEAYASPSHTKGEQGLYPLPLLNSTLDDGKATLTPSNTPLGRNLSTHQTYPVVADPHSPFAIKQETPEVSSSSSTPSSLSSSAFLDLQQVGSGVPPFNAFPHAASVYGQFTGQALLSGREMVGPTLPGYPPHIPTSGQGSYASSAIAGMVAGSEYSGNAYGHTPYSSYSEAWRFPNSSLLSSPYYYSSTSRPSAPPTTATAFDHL
# Ephrin type-A receptor 4, sequence (Q03137 whole entry): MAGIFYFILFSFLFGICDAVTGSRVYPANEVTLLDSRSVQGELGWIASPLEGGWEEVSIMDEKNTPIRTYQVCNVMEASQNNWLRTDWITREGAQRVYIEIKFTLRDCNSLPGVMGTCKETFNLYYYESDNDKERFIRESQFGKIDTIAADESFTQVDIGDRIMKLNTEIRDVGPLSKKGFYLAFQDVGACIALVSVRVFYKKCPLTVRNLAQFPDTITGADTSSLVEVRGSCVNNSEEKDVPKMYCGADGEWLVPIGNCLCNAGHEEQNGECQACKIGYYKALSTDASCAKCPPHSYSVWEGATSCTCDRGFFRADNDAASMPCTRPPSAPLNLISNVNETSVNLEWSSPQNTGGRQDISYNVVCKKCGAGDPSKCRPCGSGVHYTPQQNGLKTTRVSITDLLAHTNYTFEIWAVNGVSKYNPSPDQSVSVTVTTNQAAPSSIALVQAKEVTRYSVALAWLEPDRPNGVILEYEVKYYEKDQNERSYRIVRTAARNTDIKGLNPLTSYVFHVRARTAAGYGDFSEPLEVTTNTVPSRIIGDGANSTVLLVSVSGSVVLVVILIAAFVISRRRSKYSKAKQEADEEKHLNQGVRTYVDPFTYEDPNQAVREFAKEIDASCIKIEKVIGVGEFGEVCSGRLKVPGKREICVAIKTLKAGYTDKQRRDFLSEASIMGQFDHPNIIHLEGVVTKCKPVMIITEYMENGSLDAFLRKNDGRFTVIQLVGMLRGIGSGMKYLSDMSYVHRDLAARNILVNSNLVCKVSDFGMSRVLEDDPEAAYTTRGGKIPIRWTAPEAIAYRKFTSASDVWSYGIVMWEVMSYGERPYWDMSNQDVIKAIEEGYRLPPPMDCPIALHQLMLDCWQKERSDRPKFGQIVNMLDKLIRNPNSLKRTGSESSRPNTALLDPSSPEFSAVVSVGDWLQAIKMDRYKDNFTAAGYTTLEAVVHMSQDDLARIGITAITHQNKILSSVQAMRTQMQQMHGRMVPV
smiles,measurement,setting,value
Cc1ccc(-n2nnc3c(=O)n(CC(=O)NCc4ccco4)cnc32)cc1,IC50,[1],> 100 µM (not active)
COc1cc2c(cc1OC)C1=C(C#N)CCC(=O)N1CC2,EC50,[2],1.33 µM (active)
CC(C)c1oc(=O)cc2c1[C@@H](O)[C@H]1OC(=O)[C@@]3(C)CC[C@@H](O)[C@@]2(C)C13 (some centres not stated),CC50,[3],10.4 µM (active)
same,IC50,Vero,17.4 µM (active)
same,IC50,[4],> 80 µM (inactive)
same,IC50,cells [5],12.2 µM (active)
COc1ccc(/C=C2/C(=O)NC(=O)N(Cc3ccco3)C2=O)cc1,IC50,Large T antigen,23.5 µM (active)
same,IC50,[6],1.79 µM (active)
Cc1ccc(-c2nc3ccccc3c(=O)n2-c2cccnc2)cc1,EC50,[7],54.5 µM (not active)
CCCNC(=O)c1ccc(N2CCC3(CC2)CC(c2ccccc2)=NO3)c(NC(=O)c2ccco2)c1,EC50,[8],15.7 µM (active)
same,EC50,Streptokinase A,> 150 µM (not active)
same,EC50,Streptococcus,38.2 µM (active)
same,IC50,H9c2,31 µM (inactive)
same,EC50,Transthyretin,> 167 µM (inactive)
O=C1Nc2ccc(F)cc2/C1=C1/Nc2ccc(Br)cc2/C1=N\O,IC50,Danio rerio,0.29 µM (not active)
O=C1CC(c2ccoc2)CC(Nc2ccccc2)=C1C(=O)Nc1ccccc1 (configuration not stated),IC50,[9],> 50 µM (not active)
same,EC50,[10],> 260 µM (inactive)
CC=C(NNc1c(Cl)c(Cl)nc(C(=O)O)c1Cl)c1ccccc1,IC50,NADPH oxidase 1,> 17 µM (not active)
Cc1ccc(C)c(OCc2nnc(N)s2)c1,IC50,Ephrin type-A receptor 4,> 100 µM (not active)
O=C(CCl)/N=c1\sccn1Cc1ccccc1Cl,IC50,[11],0.442 µM (active)
same,EC50,BJ [12],0.403 µM (inconclusive)
same,EC50,BJ [13],1.33 µM (inconclusive)
same,EC50,BJ [14],12.1 µM (inconclusive)
same,EC50,[15],0.691 µM (active)
same,IC50,Jurkat,0.31 µM (active)
same,IC50,[16],> 80 µM (inactive)
same,EC50,BJ [17],0.343 µM (active)
same,AC50,Paired box protein Pax-8,1.64 µM (active)
same,AC50,[18],2.74 µM (active)
O=C(N/N=C/c1cn(-c2ccccc2)nc1-c1cccs1)c1ccc(Cl)cc1,IC50,[19],> 100 µM (active)
same,CC50,[20],23.1 µM (active)
O=C(NN1CCCC1)NS(=O)(=O)c1ccc(Cl)cc1 [GLYCLOPYRAMIDE],IC50,[21],14.9 µM (inactive)
same,IC50,cells [22],> 33.3 µM (inactive)
NC(=O)N1c2ccccc2CC(=O)c2ccccc21 [OXCARBAZEPINE],IC50,Bcl-2-related protein A1 [23],> 100 µM (not active)
same,IC50,Bcl-2-related protein A1 [24],> 100 µM (not active)
same,IC50,[25],> 66 µM (inactive)
same,IC50,[26],28.1 µM (inactive)
